Measured values taken from patent US4428936A, “Antibacterial composition for medical use” (Toyama Chemical Co., Ltd., priority 1978, dated 1984).

Assays:
Escherichia coli TK-3 [1] = assay: Minimum inhibitory concentration; format: cell-based; conditions: TK3; Escherichia coli TK-3 strain
Experimental: (§1) The minimum inhibitory concentration of T-1551 Na or Methicillin sodium against Escherichia coli TK-3 strain or Kleosiella pneumoniae Y-4 strain was greater than 800 μg/ml in each case.

[2] = tested on: Klebsiella pneumoniae Y-4; assay: Minimum inhibitory concentration; format: cell-based; conditions: Y4; Klebsiella pneumoniae Y-4 strain
Experimental: as §1

Escherichia coli TK-3 [3] = assay: Growth-inhibition test on clinically isolated strain (agar, about 10^8 cells/ml); format: cell-based; set-up: key: (+) means that the test bacterium grew; (-) means that the test bacterium did not grow; conditions: T-1551 Na 0 μg/ml; Methicillin sodium alone by line b32-b40: 3200,1600,800,400,200,100,50,25,12.5 μg/ml; 18 hours, 37° C
Experimental: (§2) Heart Infusion agar containing a prescribed amount of Methicillin sodium or T-1551 Na was inoculated with the test bacterium at a rate of about 10^8 cells/ml. After incubation for 18 hours at 37° C., the growth of the test bacterium was inspected.

[4] = tested on: Klebsiella pneumoniae Y-4; assay: as above; format: cell-based; set-up: key: (+) means that the test bacterium grew; (-) means that the test bacterium did not grow; conditions: T-1551 Na 0 μg/ml; Methicillin sodium alone by line b62-b70: 3200,1600,800,400,200,100,50,25,12.5 μg/ml; 18 hours, 37° C
Experimental: as §2

[5] = tested on: Pseudomonas aeruginosa S-111; assay: as above; format: cell-based; set-up: key: (+) means that the test bacterium grew; (-) means that the test bacterium did not grow; conditions: T-1551 Na 0 μg/ml; Methicillin sodium alone by line b92-b100: 3200,1600,800,400,200,100,50,25,12.5 μg/ml; 18 hours, 37° C
Experimental: as §2

K. pneumoniae Y-4 = assay: Effect of combined use on experimental infection in mice (protection); format: in vivo, mice (ICR strain) infected with K. pneumoniae; conditions: challenge dose 5.7 × 10^7 cells/mouse, peritoneal; subcutaneous administration one and two hours after inoculation
Excerpt: (§3) Male mice (5 mice per group) of the ICR strain, 4 weeks of age, were peritoneally inoculated with the prescribed number of pathogenic bacteria suspended in 5% mucin. After one hour and two hours following the inoculation, test preparations shown in Table 5 were subcuataneously administered to examine the protection effect.

K. pneumoniae Y-53 = assay: as above; format: in vivo, mice (ICR strain) infected with K. pneumoniae; conditions: challenge dose 1.0 × 10^7 cells/mouse, peritoneal; subcutaneous administration one and two hours after inoculation
Excerpt: as §3

[6] = tested on: Klebsiella pneumoniae GN 69; assay: Growth-inhibition test with potassium clavulanate; format: cell-based; set-up: key: (+) means that the test bacterium grew; (-) means that the test bacterium did not grow; conditions: T-1551 Na 0 μg/ml; potassium clavulanate alone by line b195,b197-b205: 100,(unlabelled),25,(unlabelled),6.25,(unlabelled),1.6,(unlabelled),0.4,(unlabelled) μg/ml
Experimental: as §2
(§4) The same operation as in Test Example 1 was repeated, except that the Methicillin sodium was replaced by potassium clavulanate and the test bacteria were replaced by those shown in Tables 6, 7 and 8, to obtain the results shown in Tables 6, 7 and 8.

Escherichia coli GN 6299 = assay: Growth-inhibition test with potassium clavulanate; format: cell-based; set-up: key: (+) means that the test bacterium grew; (-) means that the test bacterium did not grow; conditions: T-1551 Na 0 μg/ml; potassium clavulanate alone by line b171,b173-b181: 100,(unlabelled),25,(unlabelled),6.25,(unlabelled),1.6,(unlabelled),0.4,(unlabelled) μg/ml
Experimental: as §2, §4

[7] = tested on: Pseudomonas aeruginosa GN 3345; assay: Growth-inhibition test with potassium clavulanate; format: cell-based; set-up: key: (+) means that the test bacterium grew; (-) means that the test bacterium did not grow; conditions: T-1551 Na 0 μg/ml; potassium clavulanate alone by line b219-b228: 100,(unlabelled),25,(unlabelled),12.5,(unlabelled),3.1,(unlabelled),0.4,(unlabelled) μg/ml
Experimental: as §2, §4

Compound | MIC (Escherichia coli TK-3 [1]) [µg/mL] | MIC [2] [µg/mL] | growth of the test bacterium (Escherichia coli TK-3 [3]) | growth of the test bacterium [4] | growth of the test bacterium [5] | ED50 (protection effect) (K. pneumoniae Y-4) [mg/mouse] | ED50 (protection effect) (K. pneumoniae Y-53) [mg/mouse] | growth of the test bacterium [6] | growth of the test bacterium (Escherichia coli GN 6299) | growth of the test bacterium [7]
COc1cccc(OC)c1C(=O)N[C@@H]1C(=O)N2[C@@H]1SC(C)(C)[C@@H]2C(=O)O [Methicillin sodium, reference compound] | > 800 | > 800 | + | + | + | > 50 | > 46.6 | – | – | –
O=C(O)[C@H]1/C(=C/CO)O[C@@H]2CC(=O)N21 [Potassium clavulanate, potassium clavulanate, reference compound] | – | – | – | – | – | – | – | - and + | - and + | +
